Results: ChEMBL document CHEMBL1201862, “PubChem BioAssay data set” (2004)
The source made the active and inactive calls.

Tests used:
[1] = biological target: T1, Sentrin-specific protease 7 (Homo sapiens, UniProt Q9BQF6); type: functional;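 further: Luminescence-based dose-response confirmation of ultra-high-throughput screening hits, measuring inhibition of SENP7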
T1 sequence (Q9BQF6 whole entry): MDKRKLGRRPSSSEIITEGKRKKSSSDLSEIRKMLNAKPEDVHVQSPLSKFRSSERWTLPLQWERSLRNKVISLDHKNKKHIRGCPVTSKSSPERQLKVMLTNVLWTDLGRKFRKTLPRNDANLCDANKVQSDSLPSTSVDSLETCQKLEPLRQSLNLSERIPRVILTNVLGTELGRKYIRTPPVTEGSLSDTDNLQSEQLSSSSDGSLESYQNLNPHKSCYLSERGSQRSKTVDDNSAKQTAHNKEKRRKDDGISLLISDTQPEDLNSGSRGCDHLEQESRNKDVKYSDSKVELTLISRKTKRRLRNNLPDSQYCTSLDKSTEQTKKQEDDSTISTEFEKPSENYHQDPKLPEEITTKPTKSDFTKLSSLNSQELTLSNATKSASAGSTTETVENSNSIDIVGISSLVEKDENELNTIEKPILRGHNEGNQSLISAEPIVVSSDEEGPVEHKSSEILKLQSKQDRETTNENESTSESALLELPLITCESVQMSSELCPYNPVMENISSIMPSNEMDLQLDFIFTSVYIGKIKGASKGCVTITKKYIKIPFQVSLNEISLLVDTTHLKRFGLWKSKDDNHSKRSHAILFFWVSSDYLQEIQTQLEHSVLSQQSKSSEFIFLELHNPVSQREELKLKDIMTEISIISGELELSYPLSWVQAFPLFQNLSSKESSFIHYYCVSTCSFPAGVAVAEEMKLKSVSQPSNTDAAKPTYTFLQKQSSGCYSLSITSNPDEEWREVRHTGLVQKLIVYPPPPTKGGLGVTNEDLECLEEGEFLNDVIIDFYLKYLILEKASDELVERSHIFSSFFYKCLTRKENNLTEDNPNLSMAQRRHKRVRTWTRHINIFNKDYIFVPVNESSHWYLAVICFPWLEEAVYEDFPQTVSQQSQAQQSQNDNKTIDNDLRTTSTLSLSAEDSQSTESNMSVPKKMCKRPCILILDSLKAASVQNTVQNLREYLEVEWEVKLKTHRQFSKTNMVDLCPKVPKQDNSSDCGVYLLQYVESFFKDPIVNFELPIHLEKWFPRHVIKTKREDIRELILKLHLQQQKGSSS

[2] = biological target: T2, Sentrin-specific protease 6 (Homo sapiens, UniProt Q9GZR1); type: functional;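 further: Luminescence-based dose-response confirmatory assay of SENP6 inhibition, following up an ultra-high-throughput screen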
T2 sequence (Q9GZR1 whole entry): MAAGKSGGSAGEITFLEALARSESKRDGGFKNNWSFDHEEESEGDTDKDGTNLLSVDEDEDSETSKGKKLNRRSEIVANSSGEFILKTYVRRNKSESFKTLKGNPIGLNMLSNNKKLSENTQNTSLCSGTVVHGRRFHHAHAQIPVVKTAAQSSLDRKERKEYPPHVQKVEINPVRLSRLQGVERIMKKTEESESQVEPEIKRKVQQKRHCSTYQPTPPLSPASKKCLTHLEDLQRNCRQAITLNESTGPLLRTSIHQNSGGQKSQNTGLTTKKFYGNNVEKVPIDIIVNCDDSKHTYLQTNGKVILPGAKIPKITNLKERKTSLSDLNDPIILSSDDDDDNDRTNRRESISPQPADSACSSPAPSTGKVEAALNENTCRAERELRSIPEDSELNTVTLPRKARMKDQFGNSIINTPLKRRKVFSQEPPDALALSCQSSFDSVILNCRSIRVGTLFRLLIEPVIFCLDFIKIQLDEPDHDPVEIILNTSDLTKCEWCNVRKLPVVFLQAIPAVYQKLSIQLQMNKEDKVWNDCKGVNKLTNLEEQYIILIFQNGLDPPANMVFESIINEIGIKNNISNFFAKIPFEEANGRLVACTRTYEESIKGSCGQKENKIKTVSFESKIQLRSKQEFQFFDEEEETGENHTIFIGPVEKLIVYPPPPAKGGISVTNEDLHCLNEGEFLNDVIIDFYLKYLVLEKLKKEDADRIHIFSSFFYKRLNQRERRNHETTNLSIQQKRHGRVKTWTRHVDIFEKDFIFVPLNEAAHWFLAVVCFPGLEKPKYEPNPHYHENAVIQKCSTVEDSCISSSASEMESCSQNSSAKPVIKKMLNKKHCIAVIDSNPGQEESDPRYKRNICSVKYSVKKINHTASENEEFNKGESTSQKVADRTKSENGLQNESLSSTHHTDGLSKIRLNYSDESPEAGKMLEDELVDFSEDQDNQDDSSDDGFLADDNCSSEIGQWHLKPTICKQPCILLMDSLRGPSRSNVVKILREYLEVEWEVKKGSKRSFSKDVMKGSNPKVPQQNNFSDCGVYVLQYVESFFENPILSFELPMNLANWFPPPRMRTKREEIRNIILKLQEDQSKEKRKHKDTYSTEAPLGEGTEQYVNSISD

[3] = biological target: T3, Sentrin-specific protease 8 (Homo sapiens, UniProt Q96LD8); type: functional;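 further: luminescence read-out of SENP8 inhibition, dose-response confirmation following an ultra-high-throughput screen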
T3 sequence (Q96LD8 whole entry): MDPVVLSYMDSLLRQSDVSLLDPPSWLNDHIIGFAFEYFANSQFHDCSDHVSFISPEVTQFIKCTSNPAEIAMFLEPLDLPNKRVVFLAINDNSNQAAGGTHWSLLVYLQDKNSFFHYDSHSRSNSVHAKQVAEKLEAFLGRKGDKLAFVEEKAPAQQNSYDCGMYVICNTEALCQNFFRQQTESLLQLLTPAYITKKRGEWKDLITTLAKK

Caspase-3 = biological target: T4, Caspase-3 (Homo sapiens, UniProt P42574); type: functional;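 further: Dose-response selectivity test against caspase-3 for candidate inhibitors of sentrin-specific proteases (SENPs)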
T4 sequence (P42574 whole entry): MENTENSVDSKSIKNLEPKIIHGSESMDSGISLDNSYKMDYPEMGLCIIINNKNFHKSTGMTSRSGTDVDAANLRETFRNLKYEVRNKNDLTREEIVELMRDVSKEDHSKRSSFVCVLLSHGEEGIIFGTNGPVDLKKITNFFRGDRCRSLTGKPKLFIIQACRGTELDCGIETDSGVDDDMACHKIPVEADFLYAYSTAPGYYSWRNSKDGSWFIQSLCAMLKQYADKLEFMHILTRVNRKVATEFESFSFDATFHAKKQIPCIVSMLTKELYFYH

A-375 = test: MITF: Counter assay: A375 proliferation Measured in Cell-Based System Using Plate Reader - 2084-03_Inhibitor_Dose_DryPowder_Activity. [Related pubchem assays (depositor defined):AID488944]; type: functional; conditions: Homo sapiens
[4] = NIH-3T3 fibroblast cytotoxicity, dose response, cytotoxicity control, cell-based, fluorescence, Alamar Blue, secondary assay (AID 2327); type: functional;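 further: NIH-3T3 mouse fibroblasts cultured with fluconazole at 8 µg/mL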
INS1 = test: INS-1E survival protection against cytokine death – cell-based, luminescence, retest, dose response (AID 449756); type: functional; conditions: Rattus norvegicus;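 further: cell death triggered by IL-1 beta plus TNF-alpha plus IFN-gamma mixture; protective hits raise ATP signal compared with cytokine alone wells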
[5] = Trypanosoma cruzi growth suppression in host cells – NIH3T3 host cells, beta-gal luminescence, confirmation (AID 2044); type: functional, cell-based;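 further: intracellular parasites grown in NIH/3T3 mouse fibroblasts as host cells; luminescent beta-galactosidase reporter signal from transgenic T. cruzi replicating inside host cells; inhibitors lower the luminescence signal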
[6] = biological target: T5, Microphthalmia-associated transcription factor (Homo sapiens, UniProt O75030); test: reducers of TRPM1 reporter luminescence, concentration series – cell-based, SK-MEL-5, cherry-picked, set 3, MITF inhibitor project, dose response (AID 493073); type: functional;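 further: SK-MEL-5 melanoma cells with luciferase driven by the MITF target TRPM1 promoter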
T5 sequence (O75030 whole entry): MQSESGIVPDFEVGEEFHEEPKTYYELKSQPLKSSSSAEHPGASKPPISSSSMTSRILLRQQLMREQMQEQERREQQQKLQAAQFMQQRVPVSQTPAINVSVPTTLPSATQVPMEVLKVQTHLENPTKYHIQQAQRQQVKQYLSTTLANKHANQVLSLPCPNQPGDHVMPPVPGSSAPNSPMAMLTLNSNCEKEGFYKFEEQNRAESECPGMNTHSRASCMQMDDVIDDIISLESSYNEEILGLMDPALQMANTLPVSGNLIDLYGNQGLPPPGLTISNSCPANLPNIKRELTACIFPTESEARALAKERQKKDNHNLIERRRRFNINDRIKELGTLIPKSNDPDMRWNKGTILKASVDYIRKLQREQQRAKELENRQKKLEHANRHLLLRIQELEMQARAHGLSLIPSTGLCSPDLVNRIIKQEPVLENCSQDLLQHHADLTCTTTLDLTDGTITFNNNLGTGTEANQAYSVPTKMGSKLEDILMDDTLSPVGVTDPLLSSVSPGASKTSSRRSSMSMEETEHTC

[7] = biological target: Photoreceptor-specific nuclear receptor (Homo sapiens, UniProt Q9Y5X4); type: functional, cell-based;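 further: CHO-S cells with Gal4-NCOR and VP16-NR2E3 two-hybrid luciferase reporter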
[8] = reduction of Shn3 3'UTR-driven luciferase in osteoblasts – cell-based, Clone20 osteoblasts, firefly luciferase, cherry-picked, dose response (AID 624132); type: functional;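 further: firefly luciferase luminescence from reporter carrying the Shn3 3'UTR in osteoblasts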
[9] = loss of viability in HepG2 cells – cell-based, CellTiter-Glo, cherry-picked, cytotoxicity control for Shn3 inhibitor project, dose response (AID 624134); type: functional
[10] = non-specific 3'UTR reporter inhibition in Clone20-Shn3RL – cell-based, Renilla luciferase, cherry-picked, counter-screen for Shn3 inhibitor project, dose response (AID 624133); type: functional
[11] = fluconazole-exposed Candida albicans growth modulators – fluorescence, retest, confirmation (AID 2467); type: functional, cell-based
[12] = NIH3T3 cell viability loss – ATP luminescence, mouse fibroblasts, counter-screen, dose response (AID 2010); type: functional, cell-based;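 further: cells exposed to compound for about 90 hours before reading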
[13] = biological target: T6, Serine/threonine-protein phosphatase (Candida dubliniensis (strain CD36 / CBS 7987 / NCPF 3949 / NRRLY-17841) (Yeast), UniProt B9W6M3); test: blockers of CaCl2-induced CDRE-lacZ signaling – S. cerevisiae, luminescence, secondary, dose response (AID 2388); type: functional, cell-based;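 further: yeast reporter cells carrying a calcineurin-responsive lacZ construct stimulated with calcium chloride; luminescent beta-galactosidase reporter signal in whole cells rather than isolated phosphatase activity; potency for inhibition where a drop in reporter signal means calcineurin blockade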
T6 sequence (B9W6M3 whole entry): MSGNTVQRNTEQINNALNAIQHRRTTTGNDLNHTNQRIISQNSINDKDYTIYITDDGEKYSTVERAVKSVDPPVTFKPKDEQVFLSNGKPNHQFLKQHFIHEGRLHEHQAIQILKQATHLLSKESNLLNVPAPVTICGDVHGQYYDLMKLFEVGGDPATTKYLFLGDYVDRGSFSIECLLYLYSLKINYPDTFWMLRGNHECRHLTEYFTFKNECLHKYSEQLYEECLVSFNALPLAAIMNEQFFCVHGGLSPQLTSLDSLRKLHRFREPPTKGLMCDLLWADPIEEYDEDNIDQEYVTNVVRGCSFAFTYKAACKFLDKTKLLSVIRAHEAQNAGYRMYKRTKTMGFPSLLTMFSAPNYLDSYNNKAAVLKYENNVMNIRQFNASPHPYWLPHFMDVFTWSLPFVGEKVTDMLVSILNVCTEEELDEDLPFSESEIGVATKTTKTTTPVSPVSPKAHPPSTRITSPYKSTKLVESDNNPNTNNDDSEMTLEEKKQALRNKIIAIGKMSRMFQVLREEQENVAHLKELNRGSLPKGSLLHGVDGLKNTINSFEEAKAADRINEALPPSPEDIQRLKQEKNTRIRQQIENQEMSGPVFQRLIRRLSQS

[14] = biological target: T7, Heat shock factor protein 1 (Mus musculus, UniProt P38532); test: decrease of HSF1-responsive luciferase luminescence – cell-based, NIH3T3, dose retest, confirmation (AID 2382); type: functional;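 further: NIH3T3 fibroblasts with HSF1-driven luciferase reporter stressed by proteasome inhibitor MG132; luminescence from HSF1-driven luciferase expression after 8 hours of MG132 stress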
T7 sequence (P38532 whole entry): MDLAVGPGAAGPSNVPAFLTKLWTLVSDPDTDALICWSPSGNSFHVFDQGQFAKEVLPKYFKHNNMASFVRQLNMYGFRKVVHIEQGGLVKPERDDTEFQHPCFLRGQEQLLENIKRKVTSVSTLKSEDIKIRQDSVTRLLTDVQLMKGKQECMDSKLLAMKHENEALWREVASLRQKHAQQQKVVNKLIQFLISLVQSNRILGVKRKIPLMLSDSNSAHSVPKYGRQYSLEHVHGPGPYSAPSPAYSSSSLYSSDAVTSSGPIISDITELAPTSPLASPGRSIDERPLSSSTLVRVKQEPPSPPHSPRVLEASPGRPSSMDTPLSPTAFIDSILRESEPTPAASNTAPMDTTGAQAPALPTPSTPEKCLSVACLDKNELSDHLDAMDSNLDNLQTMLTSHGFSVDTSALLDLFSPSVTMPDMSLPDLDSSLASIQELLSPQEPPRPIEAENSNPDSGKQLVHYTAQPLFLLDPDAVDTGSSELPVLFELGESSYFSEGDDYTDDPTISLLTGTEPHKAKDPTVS

[15] = biological target: ATP-dependent molecular chaperone HSP82 (Candida albicans (strain WO-1) (Yeast), UniProt C4YTQ8); test: steroid-induced GRE reporter decrease in yeast – S. cerevisiae, luminescence, Hsp90 inhibitor project, dose response (AID 2400); type: functional, cell-based;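 further: beta-galactosidase luminescence from glucocorticoid response element reporter as proxy for Hsp90 function; inhibitor potency where signal loss means Hsp90 inhibition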
Nonstructural protein 1 = Nonstructural protein 1 (Influenza A virus, UniProt Q194T2); type: functional, Influenza A virus (A/California/07/2009(H1N1))
[16] = Luminescence Cell-Based Dose Confirmation HTS to Identify Activators of 5'UTR Stem-Loop Driven Alpha-Synuclein mRNA Translation in H4 Neuroglioblastoma Cells. [Related pubchem assays: 1829 (Project Summary), 1814 (Primary HTS)]; type: functional
[17] = Luminescence Cell-Based Dose Response HTS to Identify Activators of Luciferase Translation or Activity in H4 […] Cells. [Related pubchem assays: 1829 (Project Summary), 1814 (Primary HTS)]; type: functional
H4 = test: Luminescence Cell-Based Dose Response HTS to Identify Activators of 5'UTR Stem-Loop Driven Prion Protein mRNA Translation in H4 Neuroglioblastoma Cells. [Related pubchem assays: 1829 (Project Summary), 1814 (Primary HTS)]; type: functional; conditions: Homo sapiens

Chain of Nonstructural protein 1 (Q194T2 whole entry): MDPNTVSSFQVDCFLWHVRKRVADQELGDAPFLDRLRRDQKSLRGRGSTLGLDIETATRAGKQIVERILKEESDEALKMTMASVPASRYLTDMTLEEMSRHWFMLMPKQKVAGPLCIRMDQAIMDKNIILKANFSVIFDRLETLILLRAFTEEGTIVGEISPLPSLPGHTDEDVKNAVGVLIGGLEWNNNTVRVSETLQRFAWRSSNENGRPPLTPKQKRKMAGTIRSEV
Chain of ATP-dependent molecular chaperone HSP82 (C4YTQ8 whole entry): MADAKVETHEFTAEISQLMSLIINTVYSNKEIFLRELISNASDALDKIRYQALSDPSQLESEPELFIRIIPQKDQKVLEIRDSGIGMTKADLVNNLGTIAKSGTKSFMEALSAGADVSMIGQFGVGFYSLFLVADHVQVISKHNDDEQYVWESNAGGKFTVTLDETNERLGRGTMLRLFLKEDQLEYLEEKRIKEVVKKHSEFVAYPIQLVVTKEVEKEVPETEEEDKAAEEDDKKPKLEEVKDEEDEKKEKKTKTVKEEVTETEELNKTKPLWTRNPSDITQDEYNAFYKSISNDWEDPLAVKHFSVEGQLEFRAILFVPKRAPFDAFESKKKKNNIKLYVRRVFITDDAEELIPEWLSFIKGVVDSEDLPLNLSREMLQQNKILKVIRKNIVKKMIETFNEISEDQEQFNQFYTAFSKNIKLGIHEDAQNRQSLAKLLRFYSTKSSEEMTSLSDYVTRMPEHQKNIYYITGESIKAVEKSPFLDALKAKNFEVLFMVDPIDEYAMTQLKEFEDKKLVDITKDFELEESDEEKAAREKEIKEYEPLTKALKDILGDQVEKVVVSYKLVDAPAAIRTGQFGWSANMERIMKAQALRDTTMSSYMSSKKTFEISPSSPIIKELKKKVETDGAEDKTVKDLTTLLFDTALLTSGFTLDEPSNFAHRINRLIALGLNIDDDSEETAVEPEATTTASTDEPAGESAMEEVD
Chain of Photoreceptor-specific nuclear receptor (Q9Y5X4 whole entry, the tested form may be a part): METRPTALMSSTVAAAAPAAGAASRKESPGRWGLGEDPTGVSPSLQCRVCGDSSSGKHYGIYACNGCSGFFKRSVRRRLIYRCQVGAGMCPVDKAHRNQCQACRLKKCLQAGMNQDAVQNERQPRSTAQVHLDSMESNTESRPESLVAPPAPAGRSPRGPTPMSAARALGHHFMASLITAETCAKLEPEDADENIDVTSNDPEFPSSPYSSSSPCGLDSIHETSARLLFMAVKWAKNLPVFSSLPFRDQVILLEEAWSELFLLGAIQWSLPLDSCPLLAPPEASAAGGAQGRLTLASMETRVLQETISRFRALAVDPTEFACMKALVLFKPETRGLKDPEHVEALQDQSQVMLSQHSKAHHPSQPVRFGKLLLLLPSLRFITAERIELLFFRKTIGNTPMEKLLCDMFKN

## CSc1ncccc1C(=O)OCc1ccccc1
[1]
  IC50: 9.53 µM (active)
[2]
  IC50: 31.8 µM (active)
[3]
  IC50: 43.6 µM (active)
Caspase-3
  IC50: 21.3 µM (active)

## O=[N+]([O-])c1cc(CN2CCN(c3ccccc3)CC2)c(O)c2ncccc12
A-375
  AC50: 49.4 µM (active)
[4]
  EC50: 23 µM (inconclusive)
INS1
  AC50: 1.17 µM (active)
[5]
  EC50: 295 nM (active)
[6]
  AC50: 8.3 µM (active)
[7]
  IC50: 13.9 µM (inactive)
[8]
  AC50: 1.99 µM (active)
[9]
  AC50: 3.74 µM (active)
[10]
  AC50: 2.28 µM (active)
[11]
  EC50: 201 nM (active)
[12]
  EC50: 809 nM (active)
[13]
  EC50: > 180 µM (inactive)
[14]
  EC50: > 195 µM (not active)
[15]
  EC50: 18 µM (active)
Nonstructural protein 1
  IC50: 3.42 µM (active)

## O=c1cc(-c2cccs2)oc2ccc(Cl)cc12
[16]
  EC50: 3.83 µM (active)
[17]
  EC50: 5.5 µM (active)
[1]
  IC50: 7.72 µM (active)
[2]
  IC50: > 100 µM (inactive)
[3]
  IC50: > 100 µM (inactive)
H4
  EC50: > 120 µM (not active)
Caspase-3
  IC50: 18 µM (active)
